The text below walks through data of patent US20260199365A1, “BIS-SULFONAMIDE SHIP1 ACTIVATORS” (The Research Foundation for the State University of New York, priority 2022, published 2026).

SMILES strings stand for the structures.

For data set [1], the system named is IL-6 production in BV-2 cells. The data set can be described thus: ELISA quantitation of IL-6 production in BV-2 cells after stimulation with LPS. The class given is cell-based, murine. The following applies: 1 h pretreatment with SHIP1 activator 10 μM, then LPS. On the procedure: FIG. 3 presents an ELISA quantitation of IL-6 production in BV-2 cells after stimulation with LPS. BV-2 cells were plated and treated for 1 h with vehicle (Veh, 0.25% DMSO) or SHIP1 activator (10 μM in Veh) prior to addition of LPS (100 ng/ml). Unstimulated BV2 cells treated with Veh are shown as an additional control to assess LPS induction of IL-6. (A) Evaluation of 1, 26, 29 and 53. (B) In a separate experiment, 70, and 71 were evaluated under similar conditions. Bars indicate Mean G SEM; statistical tests: two-way ANOVA with Tukey correction, **** p<0.0001, ** p<0.01.
Given this experience, some of the new activators were evaluated in a cell-based setting. Using the immortalized BV-2 cell line, which is derived from murine microglia and retains many microglial morphological and functional characteristics of microglia, an assay for the anti-inflammatory effects of these activators was developed. This assay involved treatment of the cells with lipopolysaccharides (LPS) to induce IL-6 production which can then be quantified with an ELISA.
Cell culture: The BV2 cell line was obtained from the ATCC (American Type Culture Collection). The ATCC and performs genetic validation on deposited cell lines. For the inflammatory cytokines production studies, BV2 cells were cultured in DMEM/F12 (Corning) 10% HI FBS at 37° C. and 5% CO2 in a humidified incubator and split 1:6 every 3 days with Cellstripper™ (Corning). Cells were kept at 37° C. and 5% CO2 in a humidified incubator.
ELISA measurements: Parental (scrambled guide control) BV2 cells were seeded at 5×10^5/mL, […] in 48 well plate. Cell were treated with […] small molecule or vehicle control (0.5% DMSO) and incubated for 1 h before addition of stimuli. LPS (10 ng/ml, E. coli O111: B4, Sigma) was added to the cells and incubated for 6 h to detect IL-6 production. Supernatants were spun down at 400×g for 5 minutes to remove cell debris and froze at −20° C. for ELISAs. IL-6 levels were quantified from cellular supernatants with ELISA MAX™ Standard Set Mouse IL-6 kit (Biolegend), following manufacturer's recommendations. We detected absorbance at 450 nm and removed 570 nm background absorbance, with a plate reader (Synergy 2, BioTek). All experiments were repeated three times and each value was reported as mean±SEM from biological replicates in the same assay. All statistical analysis were performed using GraphPad Prism (version 9.2). Two-way ANOVA was used to analyze all data with two independent variables as time and treatment or concentration and treatment, data is reported as Mean+/−SEM.
(ELISA stands for enzyme-linked immunosorbent assay.)

Data set [2] has as its target T1, recombinant human truncated SHIP1 (tSHIP1) (Homo sapiens, UniProt Q92835).
T1 construct: tSHIP1 (SHIP1, residues 397-864) was amplified from pET24TEV-tSHIP1; His tag; made in house; host or cells: E. coli BL21
T1 sequence (Q92835 397-864): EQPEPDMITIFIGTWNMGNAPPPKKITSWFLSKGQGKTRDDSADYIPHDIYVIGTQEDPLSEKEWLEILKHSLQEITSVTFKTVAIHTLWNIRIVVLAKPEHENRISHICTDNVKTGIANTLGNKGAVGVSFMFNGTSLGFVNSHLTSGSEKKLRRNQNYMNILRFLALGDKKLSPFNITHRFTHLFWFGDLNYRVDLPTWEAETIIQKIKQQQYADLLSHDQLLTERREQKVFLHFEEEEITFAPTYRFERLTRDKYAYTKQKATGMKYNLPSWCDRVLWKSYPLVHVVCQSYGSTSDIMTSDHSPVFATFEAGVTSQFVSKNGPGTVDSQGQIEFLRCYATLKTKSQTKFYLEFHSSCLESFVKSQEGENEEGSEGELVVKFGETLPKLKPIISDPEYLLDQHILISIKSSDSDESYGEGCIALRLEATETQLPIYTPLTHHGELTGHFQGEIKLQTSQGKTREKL
The data set is described as follows: Malachite Green Phosphatase Release Assay (SHIP1 phosphatase activity). Format: biochemical. Particulars: for Phosphatase activity in the Malachite Green Assay, analog concentration 125 μM: 125 μM analog; for Phosphatase activity in the Malachite Green Assay, analog concentration 125 μM / Phosphatase activity in the Malachite Green Assay, analog concentration 250 μM / Phosphatase activity in the Malachite Green Assay, analog concentration 500 μM: 100 μM PI(3,4,5)P3-diC8 substrate, normalized to vehicle control (DMSO) = 100%; for Phosphatase activity in the Malachite Green Assay, analog concentration 250 μM: 250 μM analog; for Phosphatase activity in the Malachite Green Assay, analog concentration 500 μM: 500 μM analog, >100% activation, <100% inhibition; for SHIP1 activator activity in the malachite green assay: discussion of Table 4 (125-500 μM). On the procedure: ^aPhosphatase activity for SHIP1 and SHIP2 enzyme as determined in the malachite green assay. Results were normalized to the phosphatase activity level from vehicle control (DMSO) used as 100% activity. Values >100% are attributed to activation, while values <100% show inhibition of the enzyme compared to the control. The assay was performed at the indicated concentration of the small molecule with 100 μM PI(3,4,5)P3-diC8 as the substrate. ^bnd=not determined, compound 23 was insoluble.
Cloning and expression of tSHIP1 of truncated human SHIP1 protein (tSHIP1) from human whole blood mRNA have been previously described (see Brooks R, Iyer, S., Akada, H., Neelam, S., Russo, C. M., Chisholm, J. D., and Kerr W. G. Coordinate Expansion of Murine Hematopoietic and Mesenchymal Stem Cell Compartments by SHIPi Stem Cells 2015; 33:848). Briefly, tSHIP1 (SHIP1, residues 397-864) was amplified from pET24TEV-tSHIP1. Plasmids were extracted with Midi Prep (Qiagen) and sequences were verified by sequencing of the entire expression regions. The plasmids were then transformed into E. coli BL21 (New England Biolabs). Fresh colonies were amplified in 1 L LB at 37° C., shaking at 250 rpm until OD600 nm reached 0.6. Protein expression was induced with […] IPTG and incubation was continued at 16° C., shaking at 250 rpm for 16 h. Following centrifugation, bacteria pellets were stored overnight at −20° C. Protein was extracted form bacterial cell pellet using BugBuster HT (Millipore), according to manufacturer's recommendations. The His-tagged protein was purified by FPLC using HisTrapHP 5 ml column (Cytiva Life Sciences) at a 5 ml/min flow rate and 10 mM-1M imidazole gradient in Buffer A (20 mM Tris pH 8.0, 300 mM NaCl, 10 mM imidazole, 5 mM β-mercaptoethanol). Fractions containing active protein by Malachite Green Phosphatase Release Assay (Echelon, see below) were pooled, concentrated and buffer exchanged to reduce imidazole concentration by centrifugation using Pierce Protein Concentrators 30KMWCO PES, (ThermoFisher Scientific). Protein was aliquoted and stored at −80° C. in a mixture of Buffer A (without β-ME) and 50% glycerol.
Malachite Green Phosphatase Release Assays: Malachite Green Phosphatase Release Assays (Echelon Biosciences) were performed with recombinant human truncated SHIP1 (tSHIP1) (Brooks, 2015) and SHIP2 (Echelon Biosciences). Briefly, serial dilutions of the compounds dissolved in DMSO were added to the recombinant enzymes diluted in reaction buffer Rx (50 mM Hepes pH 7.4, 150 mM NaCl, 1 mM MgCl2, 0.25 mM EDTA) in triplicate reactions in 96-well plates. Reactions were incubated for 2 min at room temperature. […] of 1 mM Phosphatidylinositol 3,4,5-trisphosphate diC8 (PI(3,4,5)P3diC8) (Echelon Biosciences) was added to each reaction to a final concentration of 100 μM in a final volume of […]. Following 20 min incubation at 37° C., 100 μL of Malachite Green Solution (Echelon Biosciences) was added to each well and plates were incubated at room temperature in the dark for 15 min. Plates were then read at 620 nm on a plate reader (Synergy 2, BioTek).

Data set [3] is described as follows: Solubility of the isolated solid in common solvents. Format: physicochemical. The following applies: DMSO, acetone, methanol, chloroform, and water. The source says:
While most of the analogs in Table 1 were easy to handle, attempts to isolate the thiomorpholine sulfone 23 were problematic. During the final sulfonamide formation to access 23 an insoluble solid was formed and filtered from the reaction mixture. […] A combustion analysis did match the formula for the desired product, however given the insolubility of this substance it was not evaluated further.

Consider `CCCCNS(=O)(=O)c1cc(NC(=O)CNS(=O)(=O)c2ccc(F)cc2)c(C)s1` [Compound K382, N-[5-(Butylsulfamoyl)-2-methylthiophen-3-yl]-2-(4-fluorobenzenesulfonamido) acetamide], for which the “IL-6 production induced by LPS” value in data set [1] was “especially significant reductions of IL-6 production”. In addition, in data set [2], the “Phosphatase activity in the Malachite Green Assay, analog concentration 125 μM” value was found to be 124%; the “Phosphatase activity in the Malachite Green Assay, analog concentration 250 μM” value was determined as 124%; the “Phosphatase activity in the Malachite Green Assay, analog concentration 500 μM” value is given as 122%.

On to `Cc1sc(S(=O)(=O)N2CCSCC2)cc1NC(=O)[C@@H]1CCCN1S(=O)(=O)c1ccc(F)cc1` [Compound K408], for which the “IL-6 production induced by LPS” value in data set [1] is “significant decrease in IL-6 formation”. Also, in data set [2], the “Phosphatase activity in the Malachite Green Assay, analog concentration 125 μM” value was found to be 107%; the “Phosphatase activity in the Malachite Green Assay, analog concentration 250 μM” value was found to be 127%; the “Phosphatase activity in the Malachite Green Assay, analog concentration 500 μM” value is given as 130%; the “SHIP1 activator activity in the malachite green assay” value (“SHIP1 activator activity” for short) is on record as “significant activity at 250 μM”.

With `Cc1sc(S(=O)(=O)N2CCSCC2)cc1NC(=O)CNS(=O)(=O)c1ccccc1C(F)(F)F` [Compound K403, N-[2-methyl-5-(thiomorpholine-4-sulfonyl)thiophen-3-yl]-2-(2-trifluoromethylbenzenesulfonamido) acetamide], the “IL-6 production induced by LPS” value in data set [1] was “significant activity”. In addition, in data set [2], the “Phosphatase activity in the Malachite Green Assay, analog concentration 125 μM” value turned out to be 106%; the “Phosphatase activity in the Malachite Green Assay, analog concentration 250 μM” value amounted to 108%; the “Phosphatase activity in the Malachite Green Assay, analog concentration 500 μM” value is 139%; the “SHIP1 activator activity” value is listed as “good activator activity”.

With `Cc1sc(S(=O)(=O)N2CCCCC2)cc1NC(=O)CNS(=O)(=O)c1ccc(F)cc1` [Compound K368, 2-(4-Fluorobenzenesulfonamido)-N-[2-methyl-5-(piperidine-1-sulfonyl)thiophen-3-yl]acetamide], the “IL-6 production induced by LPS” value in data set [1] was “especially significant reductions of IL-6 production”. Also, in data set [2], the “Phosphatase activity in the Malachite Green Assay, analog concentration 125 μM” value is recorded as 116%; the “Phosphatase activity in the Malachite Green Assay, analog concentration 250 μM” value was 119%; the “Phosphatase activity in the Malachite Green Assay, analog concentration 500 μM” value came to 128%; the “SHIP1 activator activity” value is “nearly as active as K306”.

`Cc1sc(S(=O)(=O)N2CCS(=O)(=O)CC2)cc1NC(=O)CNS(=O)(=O)c1ccc(F)cc1` [Compound 23]: the Solubility result in data set [3] is reported as “insoluble in any solvent”.

For the molecule `Cc1sc(S(=O)(=O)N2CCCC2)cc1NC(=O)CNS(=O)(=O)c1ccc(F)cc1` [Compound K387, 2-(4-Fluorobenzenesulfonamido)-N-[2-methyl-5-(pyrrolidine-1-sulfonyl)thiophen-3-yl]acetamide], in data set [2], the “Phosphatase activity in the Malachite Green Assay, analog concentration 125 μM” value is on record as 100%; the “Phosphatase activity in the Malachite Green Assay, analog concentration 250 μM” value is reported as 97%; the “Phosphatase activity in the Malachite Green Assay, analog concentration 500 μM” value came out at 90%; the “SHIP1 activator activity” value was “loss of activity”.
